Results on five compounds are retold here after EP4763841A1, “PYRIDAZINONE COMPOUND AND USE THEREOF” (Xi'an Xintong Pharmaceutical Research Co., Ltd., priority 2023, dated 2025).

Read-outs that look alike come from different tables or passages of the source. Some results are limits rather than exact numbers.

One series has as its target T1, THRβ (Homo sapiens, UniProt P10828).
T1 sequence (P10828 217-461 limits assumed): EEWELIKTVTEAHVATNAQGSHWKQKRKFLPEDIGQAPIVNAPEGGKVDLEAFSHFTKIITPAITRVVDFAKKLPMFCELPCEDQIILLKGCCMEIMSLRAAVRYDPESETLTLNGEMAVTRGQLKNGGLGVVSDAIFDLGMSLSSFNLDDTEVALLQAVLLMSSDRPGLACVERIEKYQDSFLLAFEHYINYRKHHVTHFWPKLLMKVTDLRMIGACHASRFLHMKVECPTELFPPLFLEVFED
Briefly: HTRF test of agonist-induced SRC3-2 coactivator peptide recruitment to THRβ-LBD. Type of series: biochemical. To be noted: for agonistic activity on THRβ compared with Resmetirom / selectivity of agonistic effect for THRβ over THRα: result in words. As for the experimental part:
(§1) 1. Experiment of binding of compounds to THRβ and THRα
(§2) Test principle: The effect of test compounds on THRβ and THRα was tested by using a method of HTRF. An MAb Anti GST-Eu cryptate antibody binds to GST-tagged THRα-LBD (or THRβ-LBD), while Streptavidin-XL665 binds to a biotin-labeled SRC3-2 coactivator peptide. […] At the same time, the resulting decrease in the distance between XL665-labeled SRC3-2 and an Eu-anti-GST antibody increases a THRFRET signal. The agonistic capacity at this target was assessed by the effect of compounds on the activity of THRα-LBD (THRβ-LBD) at different concentrations.
Test method: THRβ test procedures:
(§3) • (1) a 1×reaction solution was prepared. • (2) Preparation of compounds: the compound test starting concentration was 20 µM, 3-fold dilution was performed, 10 concentrations were set, and duplicate testing was set for each concentration. 100-fold dilution was performed in a 384-well Source plate to a corresponding solution with a final concentration, and then 200 nL of the solution was transferred to a 384-well reaction plate with Echo550 to be tested. 200 nL of 100% DMSO and a test article were respectively transferred to Min and Max wells. • (3) A 2×protein solution was prepared from the 1×reaction solution. • (4) A 4×SRC3-2 solution was prepared from the 1×reaction solution. • (5) A mixed solution of 4×GST-Eu cryptate and XL665 was prepared from the 1×reaction solution. • (6) 10 µl of the 2×protein solution was added to each well of the reaction plate, centrifugation was performed at 1000 rpm for 1 min, and incubation was performed at room temperature for 30 min. • (7) 5 µl of the 4×SRC3-2 solution was added to each well of the reaction plate, and centrifugation was performed at 1000 rpm for 1 min. • (8) 5 µL of the mixed solution of 4×GST-Eu cryptate and XL665 was added to each well of the reaction plate, centrifugation was performed at 1000 rpm for 1 min, and incubation was performed at 25°C. • (9) A fluorescence signal was read by using EnVision.

Another series addresses THRα (Homo sapiens, UniProt P10827). The series can be described thus: HTRF test of agonist-induced SRC3-2 coactivator peptide recruitment to THRα-LBD. The following applies: for EC50: HTRF, starting concentration 20 µM, 3-fold dilution, 10 concentrations, duplicate; for agonistic activity on THRα: result in words. It is filed as biochemical. How it is done: as §1, §2, §3
THRα test procedures were the same as above.

The nature of series [1]: Comparison of compound metabolites by human liver microsome incubation (LC-MS/MS). Type of series: in vitro ADME. To be noted: 10 µM compound, human liver microsome 1.0 mg/mL, β-NADPH 1.0 mM, 37°C, 60 min. As for the experimental part: The purpose of this experiment was to evaluate the comparison of the content of major metabolites of human liver microsome incubated compounds.
Sample treatment: a sample was precipitated with acetonitrile (ACN) containing 0.1% formic acid in a ratio of 1:2, and further centrifuged. A supernatant was dried with a nitrogen flow. A residue was reconstituted in […] of 10% ACN and 90% H2O containing 0.1% formic acid. […] of the reconstituted material was injected into an LC-MS/MS system for analysis.

The nature of series [2]: In vivo pharmacokinetic study of elimination phase half-life after single IV bolus. The following applies: Sprague-Dawley, rat, whole blood, intravenous, I.V bolus, 5 mg/kg, rats, read-out: Elimination phase half-life (T1/2) (converted). Also on record: species or system Sprague Dawley rats. How it is done:
Blood samples were collected from animals (IV group) before administration and at time points of 0.083 h, 0.25 h, 0.5 h, 1 h, 2 h, 4 h, 8 h, and 24 h after the end of administration. • Sample treatment: prior to blood collection, a centrifuge tube with 10 µl of EDTA-K2 and 1.2 mL of 50% acetonitrile-DMSO (a volume ratio of whole blood to 50% acetonitrile-DMSO is approximately 1:4) was placed in an ice box filled with crushed ice. The collected blood was added to the centrifuge tube, vortexed for at least 5 min, and then temporarily stored and transported in the ice box filled with crushed ice; and the blood was centrifuged at 12,000 g for 10 min at 4°C, wherein centrifugation was completed within 1 h after blood collection. A whole blood supernatant after centrifugation was transferred to a newly labeled tube, and transferred to -60°C or below for storage for analytical testing.

The subject of the next series is NASH model of B-DIO mice. The series can be described thus: Efficacy test in NASH model of B-DIO mice (HFD + CCL4). It is filed as in vivo. The source says: An objective of this experiment was to evaluate the pharmacodynamics of compounds of the present invention by using an NASH model of B-DIO mice.
Five C57BL/6 mice on normal diet were assigned to an experimental group G1, and 25 B-DIO mice were randomly assigned to five experimental groups according to the body weight, with 5 mice in each group.
The day of grouping was Day-1, intraperitoneal injection was started on Day 0 in the groups G2-G6 for CCL4 modeling, the concentration of a modeling agent is 0.2 µl/g, the modeling frequency was twice a week, and administration was started on Day 0.
The body weight was measured twice a week after grouping. At the end of the experiment (Day 26), the mice were fasted for 4 h, and non-anticoagulated blood of the mice in the groups G1-G6 was collected and centrifuged, and a serum was taken for blood biochemical testing. Livers in the groups G1-G6 were collected and weighed, 20 mg of the liver was weighed for determination of TC and TG, and the remaining liver was placed in formalin for fixation for pathological observation.

Where [3] appears, read: HTRF, starting concentration 20 µM, 3-fold dilution, 10 concentrations, duplicate, read-out: THRβ (EC50).
Where [4] appears, read: liver, Day 26, 3 mg/kg I.G. Q.D., HFD+CCL4, mean±standard error.

Chain of THRα (P10827 148-410 isoform P10827-2 limits assumed, other chains not shown): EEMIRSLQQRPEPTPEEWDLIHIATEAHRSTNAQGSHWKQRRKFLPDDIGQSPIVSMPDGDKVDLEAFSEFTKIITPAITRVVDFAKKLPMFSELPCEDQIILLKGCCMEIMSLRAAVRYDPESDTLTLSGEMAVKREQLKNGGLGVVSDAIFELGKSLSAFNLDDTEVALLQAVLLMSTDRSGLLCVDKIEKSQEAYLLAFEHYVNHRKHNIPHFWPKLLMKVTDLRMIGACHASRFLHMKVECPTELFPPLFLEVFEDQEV

Turning to `[2H]C([2H])([2H])C(c1cc(Oc2c(Cl)cc(-n3nc(CF)c(=O)[nH]c3=O)cc2Cl)n[nH]c1=O)C([2H])([2H])[2H]` [Compound 1], the results for the concentration giving a half-maximal response (EC50) at THRβ (setting [3]) and at THRα were 20 nM and 326 nM, respectively. Also, the “agonistic activity on THRβ compared with Resmetirom” value on THRβ is listed as “significantly better than that of Resmetirom”.

With `Cc1c(Oc2c(Cl)cc(-n3nc(CF)c(=O)[nH]c3=O)cc2Cl)n[nH]c(=O)c1C(C)C` [Compound 16], the EC50 on THRβ (setting [3]) was determined as 11 nM. On THRβ, the “agonistic activity on THRβ compared with Resmetirom” value is on record as “significantly better than that of Resmetirom” and the “selectivity of agonistic effect for THRβ over THRα” value is recorded as “selective agonistic effects on THRβ”. Besides, at THRα, the EC50 was more than 5000 nM and the “agonistic activity on THRα” value is reported as “weak agonistic activity on THRα”. Moreover, in series [1], the “Monooxidized metabolite percent content (%)” value is recorded as 9.7%. Also, the “Monooxidized metabolite percent content (%)” value in series [1] (listed as compound 16) is on record as 9.7%.

For the compound `Cc1c(C(C)C)c(Oc2c(Cl)cc(-n3nc(CF)c(=O)[nH]c3=O)cc2Cl)n[nH]c1=O` [Compound 17], at THRβ, the EC50 turned out to be 46 nM, the “agonistic activity on THRβ compared with Resmetirom” value is “significantly better than that of Resmetirom” and the “selectivity of agonistic effect for THRβ over THRα” value was “selective agonistic effects on THRβ”. Also, on THRα, the EC50 was more than 5000 nM and the “agonistic activity on THRα” value is on record as “weak agonistic activity on THRα”.

Turning to `CC(C)c1cc(Oc2c(Cl)cc(-n3nc(CF)c(=O)[nH]c3=O)cc2Cl)n[nH]c1=O` [Compound X1, reference compound], the figures for the half-maximal effective concentration (EC50) on THRβ (setting [3]) and on THRα were 22 nM and 95 nM, respectively.

As for `CC(C)c1cc(Oc2c(Cl)cc(-n3nc(C#N)c(=O)[nH]c3=O)cc2Cl)n[nH]c1=O` [Resmetirom, reference compound], in series [2], the half-life is 2.98 h. Moreover, the “area proportion of lipid droplets in the liver (oil red O) compared with the model group G2” value in the series with NASH model of B-DIO mice (G3, 3 mg/kg, Day 26, result in words (FIG. 8)) is “decreased but no significant difference was seen”. In addition, in the series on NASH model of B-DIO mice (G3, 3 mg/kg, Day 26, result in words (FIG. 9)), the “liver fibrosis (Sirius red) compared with the model group G2” value is on record as “certain improvement effects on liver fibrosis”. Further, in the series with NASH model of B-DIO mice (setting [4]), the “TC” value is 56.44 ± 0.85 µmol/g and the “TG” value stood at 74.26 ± 4.34 µmol/g. For the same compound, in the series on NASH model of B-DIO mice (serum, Day 26, 3 mg/kg I.G. Q.D., HFD+CCL4, mean±standard error), the “TG” value turned out to be 1.17 ± 0.06 mM.
